The record followed here is ChEMBL document CHEMBL1128766, “The synthesis and lactamase inhibitory activity of 6-(carboxymethylene)penicillins and 7-(carboxymethylene)cephalosporins” (Bioorg Med Chem Lett, 1995).

Some results are limits rather than exact numbers.

Test [1] concerns Escherichia coli. The test can be described thus: […] antibacterial activity (synergistic study) against Escherichia coli OXA-1. Format: functional.
For test [2], the system named is Escherichia coli. Description: […] antibacterial activity (synergistic study) against Escherichia coli TEM-1. Format: functional.
Test [3] relates to Escherichia coli. Description: […] antibacterial activity (synergistic study) against Escherichia coli TEM-2. Format: functional.
Test [4] concerns Enterobacter cloacae. The test can be described thus: […] antibacterial activity (synergistic study) against Enterobacter cloacae 12368. Type of test: functional.
Test [5] deals with Enterobacter cloacae. Description: […] antibacterial activity (synergistic study) against Enterobacter cloacae P99. Format: functional.
The test system of a further test is Staphylococcus aureus. The test can be described thus: […] antibacterial activity (synergistic study) against Staphylococcus aureus ATCC 29213. Type of test: functional.
The next test concerns the target Beta-lactamase TEM (Escherichia coli, UniProt P62593). Description: Inhibitory activity against beta-Lactamase enzyme derived from Escherichia coli WC3310 TEM-2.
The target in test [6] is T1, Beta-lactamase (Enterobacter cloacae, UniProt P05364).
T1 sequence (P05364 whole entry): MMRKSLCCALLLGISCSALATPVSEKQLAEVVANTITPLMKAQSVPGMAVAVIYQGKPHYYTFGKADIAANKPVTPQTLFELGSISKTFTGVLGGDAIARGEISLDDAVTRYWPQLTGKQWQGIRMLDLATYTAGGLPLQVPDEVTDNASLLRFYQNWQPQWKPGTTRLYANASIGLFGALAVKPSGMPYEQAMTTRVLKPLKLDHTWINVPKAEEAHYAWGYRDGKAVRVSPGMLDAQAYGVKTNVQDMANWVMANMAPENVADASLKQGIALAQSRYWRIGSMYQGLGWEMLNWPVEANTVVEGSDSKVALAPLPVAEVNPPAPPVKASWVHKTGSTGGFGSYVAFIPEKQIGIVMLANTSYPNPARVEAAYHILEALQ
Description: Inhibitory activity against beta-Lactamase enzyme derived from Enterobacter cloacae P99
Test [7] concerns the target T1, Beta-lactamase. This is another data set of the same source.
Description: Inhibitory activity against beta-Lactamase enzyme derived from Enterobacter cloacae SC 12368 E-2

By MIC is commonly meant the lowest concentration found to suppress growth. Broadly, the IC50 is the concentration at which inhibition is half-maximal. A lower IC50 goes with higher potency.

Chain of Beta-lactamase TEM (P62593 whole entry): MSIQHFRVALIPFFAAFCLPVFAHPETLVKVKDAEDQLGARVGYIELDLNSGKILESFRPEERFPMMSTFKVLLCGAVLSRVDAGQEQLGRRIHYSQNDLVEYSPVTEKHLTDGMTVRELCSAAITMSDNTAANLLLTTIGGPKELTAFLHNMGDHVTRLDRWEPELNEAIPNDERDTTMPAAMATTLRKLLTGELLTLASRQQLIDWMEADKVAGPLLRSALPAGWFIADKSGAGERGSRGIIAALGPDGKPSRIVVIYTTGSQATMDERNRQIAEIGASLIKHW

As for `CC(=O)OCC1=C(C(=O)[O-])N2C(=O)/C(=C/C(=O)OC(C)(C)C)[C@H]2S(=O)(=O)C1.[Na+]`, the MIC in the test with Escherichia coli [1] was greater than 128 µg/mL; in the test with Escherichia coli [2], greater than 128 µg/mL; in the test with Escherichia coli [3], greater than 128 µg/mL; in the test with Enterobacter cloacae [4], greater than 128 µg/mL; in the test on Enterobacter cloacae [5] it was greater than 128 µg/mL; in the test on Staphylococcus aureus, 4 µg/mL.
Consider `CC(C)(C)OC(=O)/C=C1/C(=O)N2[C@@H](C(=O)[O-])C(C)(C)S(=O)(=O)[C@H]12.[Na+]`, for which the results for the IC50 against Beta-lactamase TEM, at Beta-lactamase [6] and against Beta-lactamase [7] were 0.136 µM, 4.09 µM and 13.6 µM, respectively. Besides, the MIC in the test on Escherichia coli [1], in the test with Escherichia coli [2], in the test with Escherichia coli [3], in the test with Enterobacter cloacae [4], with Enterobacter cloacae [5] and with Staphylococcus aureus was greater than 128 µg/mL in each case.
As to `CC1(C)[C@H](C(=O)[O-])N2C(=O)/C(=C/C(=O)[O-])[C@H]2S1(=O)=O.[Na+].[Na+]`, the IC50 on Beta-lactamase TEM was 0.12 µM; against Beta-lactamase [6], 0.045 µM; against Beta-lactamase [7] it was 0.091 µM. Also, the MIC in the test with Escherichia coli [1], with Escherichia coli [2], in the test on Escherichia coli [3], in the test with Enterobacter cloacae [4], in the test on Enterobacter cloacae [5] and in the test on Staphylococcus aureus was greater than 128 µg/mL throughout.
In the case of `COC(=O)/C=C1/C(=O)N2[C@@H](C(=O)[O-])C(C)(C)S(=O)(=O)[C@H]12.[Na+]`, the IC50 at Beta-lactamase TEM worked out at 0.308 µM; on Beta-lactamase [6], 0.154 µM; against Beta-lactamase [7], 0.615 µM. The MIC in the test on Escherichia coli [1], in the test with Escherichia coli [2], in the test with Escherichia coli [3], with Enterobacter cloacae [4], in the test on Enterobacter cloacae [5] and in the test on Staphylococcus aureus was greater than 128 µg/mL each time.
Regarding `CCN1CCN(C(=O)NC(C(=O)N[C@H]2C(=O)N3[C@H]2SC(C)(C)[C@H]3C(=O)O)c2ccccc2)C(=O)C1=O.COC(=O)/C=C1/C(=O)N2[C@@H](C(=O)[O-])C(C)(C)S(=O)(=O)[C@H]12.[Na+]` (some centres undefined), the MIC was found to be 16 µg/mL in the test on Escherichia coli [1]; 64 µg/mL in the test on Escherichia coli [2]; 128 µg/mL in the test with Escherichia coli [3]; 16 µg/mL with Enterobacter cloacae [4]; 128 µg/mL with Enterobacter cloacae [5]; 1 µg/mL in the test on Staphylococcus aureus.
With `CC(=O)OCC1=C(C(=O)[O-])N2C(=O)/C(=C/C(=O)[O-])[C@H]2S(=O)(=O)C1.[Na+].[Na+]`, the figures for the IC50 against Beta-lactamase TEM, against Beta-lactamase [6] and at Beta-lactamase [7] were 0.4 µM, greater than 20 µM and greater than 20 µM, respectively. Further, the MIC is greater than 128 µg/mL in the test on Escherichia coli [1]; greater than 128 µg/mL in the test with Escherichia coli [2]; greater than 128 µg/mL with Escherichia coli [3]; greater than 128 µg/mL in the test with Enterobacter cloacae [4]; greater than 128 µg/mL with Enterobacter cloacae [5]; 16 µg/mL in the test with Staphylococcus aureus.
For the molecule `CC(C)(C)OC(=O)/C=C1/C(=O)N2[C@@H]1SC(C)(C)[C@@H]2C(=O)O`, the IC50 against Beta-lactamase TEM was greater than 20 µM; against Beta-lactamase [6] it was 8.95 µM; against Beta-lactamase [7], greater than 20 µM.
Regarding `COC(=O)/C=C1/C(=O)N2C(C(=O)O)=C(COC(C)=O)CS[C@H]12`, the IC50 against Beta-lactamase TEM, against Beta-lactamase [6] and at Beta-lactamase [7] was greater than 20 µM throughout.
For `CC(=O)/C=C1/C(=O)N2[C@@H]1SC(C)(C)[C@@H]2C(=O)O`, the IC50 against Beta-lactamase TEM amounted to 0.003 µM; against Beta-lactamase [6], 0.361 µM; on Beta-lactamase [7] it was 5.41 µM.
As for `COC(=O)/C=C1/C(=O)N2[C@@H]1SC(C)(C)[C@@H]2C(=O)O`, the IC50 on Beta-lactamase TEM, against Beta-lactamase [6] and against Beta-lactamase [7] was greater than 20 µM throughout.
Turning to `COC(=O)/C=C1/C(=O)N2C(C(=O)[O-])=C(COC(C)=O)CS(=O)(=O)[C@H]12.[Na+]`, the results for the IC50 against Beta-lactamase TEM, at Beta-lactamase [6] and at Beta-lactamase [7] were 0.037 µM, greater than 20 µM and greater than 20 µM, respectively. Also, the MIC in the test with Escherichia coli [1], in the test on Escherichia coli [2], in the test with Escherichia coli [3], in the test on Enterobacter cloacae [4], with Enterobacter cloacae [5] and in the test with Staphylococcus aureus was greater than 128 µg/mL each time.
Turning to `C=C=C1C(=O)N2C(C(=O)O)=C(COC(C)=O)CS(=O)(=O)[C@H]12`, the IC50 against Beta-lactamase TEM was greater than 20 µM; at Beta-lactamase [6], 0.13 µM; against Beta-lactamase [7] it was 0.26 µM.
For `CC(=O)OCC1=C(C(=O)O)N2C(=O)/C(=C/C(=O)O)[C@H]2SC1`, the IC50 at Beta-lactamase TEM, against Beta-lactamase [6] and at Beta-lactamase [7] was greater than 20 µM each time.
`CC1(C)[C@H](C(=O)[O-])N2C(=O)/C(=C/C(=O)[O-])[C@H]2S1(=O)=O.CCN1CCN(C(=O)NC(C(=O)N[C@H]2C(=O)N3[C@H]2SC(C)(C)[C@H]3C(=O)O)c2ccccc2)C(=O)C1=O.[Na+].[Na+]` (some centres undefined): the MIC in the test on Escherichia coli [1] is 16 µg/mL; in the test on Escherichia coli [2] it was 32 µg/mL; in the test on Escherichia coli [3], 64 µg/mL; in the test on Enterobacter cloacae [4], 16 µg/mL; in the test with Enterobacter cloacae [5], 128 µg/mL; in the test with Staphylococcus aureus, 4 µg/mL.
On to `CC(=O)OCC1=C(C(=O)[O-])N2C(=O)/C(=C/C(=O)OC(C)(C)C)[C@H]2S(=O)(=O)C1.CCN1CCN(C(=O)NC(C(=O)N[C@H]2C(=O)N3[C@H]2SC(C)(C)[C@H]3C(=O)O)c2ccccc2)C(=O)C1=O.[Na+]` (some centres undefined), for which the MIC was 64 µg/mL with Escherichia coli [1]; 64 µg/mL in the test with Escherichia coli [2]; 128 µg/mL in the test on Escherichia coli [3]; 16 µg/mL in the test with Enterobacter cloacae [4]; 128 µg/mL with Enterobacter cloacae [5]; 4 µg/mL in the test with Staphylococcus aureus.
As to `C=C1C(=O)N2C(C(=O)O)=C(COC(C)=O)CS(=O)(=O)[C@H]12`, the IC50 came out at 0.8 µM against Beta-lactamase TEM, 0.025 µM against Beta-lactamase [6] and 0.025 µM against Beta-lactamase [7].
On to `CC(=O)OCC1=C(C(=O)[O-])N2C(=O)/C(=C/C(=O)[O-])[C@H]2S(=O)(=O)C1.CCN1CCN(C(=O)NC(C(=O)N[C@H]2C(=O)N3[C@H]2SC(C)(C)[C@H]3C(=O)O)c2ccccc2)C(=O)C1=O.[Na+].[Na+]` (some centres undefined), for which the MIC in the test on Escherichia coli [1] is 64 µg/mL; with Escherichia coli [2], 64 µg/mL; in the test with Escherichia coli [3], 128 µg/mL; in the test on Enterobacter cloacae [4] it was 32 µg/mL; with Enterobacter cloacae [5], 128 µg/mL; in the test on Staphylococcus aureus, 4 µg/mL.
As for `CC1(C)S[C@@H]2/C(=C\C(=O)O)C(=O)N2[C@H]1C(=O)O`, the IC50 was greater than 20 µM against Beta-lactamase TEM, 13.9 µM against Beta-lactamase [6] and greater than 20 µM against Beta-lactamase [7].
Take `CCN1CCN(C(=O)NC(C(=O)N[C@H]2C(=O)N3[C@H]2SC(C)(C)[C@H]3C(=O)O)c2ccccc2)C(=O)C1=O.COC(=O)/C=C1/C(=O)N2C(C(=O)[O-])=C(COC(C)=O)CS(=O)(=O)[C@H]12.[Na+]` (some centres undefined): the MIC in the test with Escherichia coli [1] is 64 µg/mL; in the test on Escherichia coli [2], 32 µg/mL; with Escherichia coli [3] it was 64 µg/mL; with Enterobacter cloacae [4], 16 µg/mL; in the test on Enterobacter cloacae [5], 128 µg/mL; with Staphylococcus aureus it was 4 µg/mL.
Turning to `CC(C)(C)OC(=O)/C=C1/C(=O)N2[C@@H](C(=O)[O-])C(C)(C)S(=O)(=O)[C@H]12.CCN1CCN(C(=O)NC(C(=O)N[C@H]2C(=O)N3[C@H]2SC(C)(C)[C@H]3C(=O)O)c2ccccc2)C(=O)C1=O.[Na+]` (some centres undefined), the MIC in the test on Escherichia coli [1] was 32 µg/mL; in the test on Escherichia coli [2], 128 µg/mL; in the test with Escherichia coli [3], greater than 128 µg/mL; in the test with Enterobacter cloacae [4] it was 32 µg/mL; in the test on Enterobacter cloacae [5], 128 µg/mL; with Staphylococcus aureus, 2 µg/mL.
For `C[C@]1(Cn2ccnn2)[C@H](C(=O)O)N2C(=O)C[C@H]2S1(=O)=O` (single isomer, unassigned) [TAZOBACTAM], the MIC with Escherichia coli [1] was greater than 128 µg/mL; in the test on Escherichia coli [2] it was greater than 128 µg/mL; in the test on Escherichia coli [3], greater than 128 µg/mL; in the test with Enterobacter cloacae [4], greater than 128 µg/mL; in the test with Enterobacter cloacae [5], greater than 128 µg/mL; in the test with Staphylococcus aureus it was 64 µg/mL.
In the case of `CCN1CCN(C(=O)N[C@@H](C(=O)NC2C(=O)N3C2SC(C)(C)C3C(=O)O)c2ccccc2)C(=O)C1=O.C[C@]1(Cn2ccnn2)[C@H](C(=O)O)N2C(=O)C[C@H]2S1(=O)=O` (single isomer, unassigned; form 1), the MIC in the test with Escherichia coli [1] worked out at 16 µg/mL; in the test with Escherichia coli [2], 2 µg/mL; in the test on Escherichia coli [3], 8 µg/mL; in the test with Enterobacter cloacae [4] it was 16 µg/mL; in the test with Enterobacter cloacae [5], 16 µg/mL; in the test with Staphylococcus aureus, 1 µg/mL.
For the molecule `CCN1CCN(C(=O)N[C@@H](C(=O)NC2C(=O)N3C2SC(C)(C)C3C(=O)O)c2ccccc2)C(=O)C1=O` (single isomer, unassigned; form 2) [PIPERACILLIN], the MIC in the test on Escherichia coli [1] was 64 µg/mL; in the test on Escherichia coli [2] it was greater than 128 µg/mL; in the test on Escherichia coli [3], greater than 128 µg/mL; in the test on Enterobacter cloacae [4], 16 µg/mL; in the test on Enterobacter cloacae [5], greater than 128 µg/mL; in the test with Staphylococcus aureus it was 4 µg/mL.
